In patent US4613602A, “Ranitidine derivative useful in the treatment of ulcer” (Magis Farmaceutici s.r.l., priority 1984, dated 1986):

Legend:
[1] = tested on: indomethacin-induced ulcers; experiment: Anti-ulcer activity, indomethacin-induced ulcers in rat; type: in vivo; details: 25 mg/kg p.o.; for Inhibition percentage (ulcer): relative to control; for mm of ulcer: control 18.4
Text: This activity has been evaluated by using the method of indomethacin-induced ulcers in rat [Bhargava, K. P., Gupta M. B. and Tangri, K. K.: European J. of Pharmacology, 22, 191-195 (1973)].
The product has been administered as dissolved in carboxymethylcellulose at 0.2% and Tween 80 at 1% concentration.

H2-receptors = target: T1, H2-receptors (Rattus norvegicus, UniProt P25102); experiment: Antagonism to histamine in isolated uterus of female rat under estrus; details: for Relaxation with histamine 10^-2 g/l, after the administration / Relaxation with histamine 10^-2 g/l, Δ: basal value 11.5
T1 construct: functional antagonism of histamine-induced relaxation

mice and rats = experiment: Acute toxicity, overall comparison (mouse and rat); type: in vivo; details: whole of the data of Table 1
Text: (§1) The characteristics of high activity and of practical absence of side effects have been evaluated by studying the acute toxicity, the activity on indomethacin-induced ulcers, on gastric secretion, on histamine-inducedgastric hyperacidity, and on H2 --receptors of isolated uterus of guinea pig.
(§2) The acute toxicity has been studied on male and female mice of Swiss strain, and on albino male and female rats of Wistar strain, by administering the active principle by the oral way, by intravenous way, and by intramuscular way.
(§3) For each administering way envisaged, doses in geometrical progression have been tested.
(§4) At the end of the observation time period of 14 days, the LD50 and the related fiducial limits have been computated according to the method by Licthfield and Wilcoxon [Pharmacol. Exp. Theor., 118, 96-99 (1949)].

[2] = Acute toxicity (LD50) in rat, Lichtfield and Wilcoxon; details: in vivo, 14 days observation, read-out: DL50
Text: as §1, §2, §3, §4

[3] = Acute toxicity (LD50) in mouse, Lichtfield and Wilcoxon; details: in vivo, 14 days observation
Text: as §1, §2, §3, §4

[4] = tested on: gastric secretion induced by histamine; experiment: Anti-H2 activity, gastric secretion in rats in vivo induced by histamine; parameters: species or system rat; details: 50 mg/kg i.p.; for pH variation from the beginning of the treatment / Area: mean ± ES; for Area: control 184.93, *p ≤ 0.01, **p ≤ 0.01
Method: Anti-H2 activity. Gastric secretion in rats in vivo induced by histamine. The anti-secretory activity has been studied by the method by Gosh, M. N., Schild, M. O. [Brit. J. Pharmacol., 13, 54 (1958)]. | Antihistaminic anti-H2 activity, gastric secretion in rats, in vivo, | induced by histamine. | Histamine perfused into vein 200 μg/kg/min at the flow rate of 0.1 | ml/min. | Perfusion of stomach with 0.00025 N NaOH at the flow rate of 1 | ml/min.

gastric secretion = experiment: Therapeutical activity, overall statement; details: in vivo
[5] = im, intramuscular administering
[6] = im, intramuscular administering, read-out: DL50
[7] = intravenous administering, read-out: DL50
[8] = oral administering, read-out: DL50 (95 fiducial limits)

T1 sequence (P25102 whole entry): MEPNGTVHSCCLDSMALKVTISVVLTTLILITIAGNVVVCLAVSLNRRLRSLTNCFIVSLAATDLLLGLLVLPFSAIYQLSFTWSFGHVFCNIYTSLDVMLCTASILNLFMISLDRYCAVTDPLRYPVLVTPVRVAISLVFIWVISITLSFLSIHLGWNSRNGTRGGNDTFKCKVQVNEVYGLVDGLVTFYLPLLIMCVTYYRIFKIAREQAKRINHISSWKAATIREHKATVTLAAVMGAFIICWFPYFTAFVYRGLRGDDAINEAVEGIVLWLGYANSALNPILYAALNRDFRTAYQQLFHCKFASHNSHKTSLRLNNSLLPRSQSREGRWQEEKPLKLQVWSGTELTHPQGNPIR

| SMILES | Inhibition percentage (ulcer) [1] | mm of ulcer [1] | LD50 at 336 h [2, 5] | LD50 at 336 h ([2]; intravenous administering) | LD50 at 336 h ([2]; oral administering) | LD50 at 336 h [3, 6] | LD50 at 336 h [3, 7] | LD50 at 336 h [3, 8] | pH variation from the beginning of the treatment ([4]; 0 min) | % Δ (percent increase of area relatively to the control) [4] | Area [4] | pH variation from the beginning of the treatment ([4]; 5 min) | pH variation from the beginning of the treatment ([4]; 10 min) | pH variation from the beginning of the treatment ([4]; 15 min) | pH variation from the beginning of the treatment ([4]; 20 min) | pH variation from the beginning of the treatment ([4]; 25 min) | pH variation from the beginning of the treatment ([4]; 30 min) | pH variation from the beginning of the treatment ([4]; 35 min) | pH variation from the beginning of the treatment ([4]; 40 min) | pH variation from the beginning of the treatment ([4]; 45 min) | further results |
| --- | --- | --- | --- | --- | --- | --- | --- | --- | --- | --- | --- | --- | --- | --- | --- | --- | --- | --- | --- | --- | --- |
| CN(C)Cc1ccc(CSCCNC(=C[N+](=O)[O-])N2CCN(C)CC2)o1 [Methylpiperazino-ranitidine, 1-N-[2-[[5-[(dimethylamino)-methyl]-furfuryl]-thio]-ethyl]-amino-1-[4-methylpiperazino]-2-nitroethene] | 85.9 percentage | 2.6 mm | 2000 mg/kg | 110 mg/kg | 5500 mg/kg | 300 mg/kg | 120 mg/kg | 2610 mg/kg | 8.68 pH | 32.84% | 245.67 mm^2 | 7.21 pH | 5.85 pH | 4.62 pH | 4.43 pH | 4.39 pH | 4.27 pH | 4.06 pH | 4.05 pH | 3.97 pH | anti-ulcer activity compared with ranitidine [1]: same anti-ulcer activity as ranitidine; Relaxation with histamine 10^-2 g/l, after the administration (H2-receptors; 6.75 × 10^-3 g/l, N° 5): 2.5; Relaxation with histamine 10^-2 g/l, Δ (H2-receptors; 6.75 × 10^-3 g/l, N° 5): 9; inhibition at 6.75 µg/mL (H2-receptors; rat, 6.75 × 10^-3 g/l, N° 5, read-out: Inhibition percentage (relaxation with histamine 10^-2 g/l)): 78.2%; toxicity compared with ranitidine (mice and rats): constantly results less toxic than ranitidine; action prolonged in time, pH value from the 35th to the 60th minute [4]: from the 35th to the 60th minute the pH value remains nearly constant; pH variation from the beginning of the treatment ([4]; 50 min): 3.92 pH; pH variation from the beginning of the treatment ([4]; 55 min): 3.99 pH; pH variation from the beginning of the treatment ([4]; 60 min): 3.95 pH; therapeutical activity compared with ranitidine (gastric secretion): practically overlapping to that of ranitidine |
| CNC(=C[N+](=O)[O-])NCCSCc1ccc(CN(C)C)o1 [Ranitidine, ranitidine] | 84.2 percentage | 2.9 mm | 2020 mg/kg | 93 mg/kg | > 5000 mg/kg | 280 mg/kg | 80 mg/kg | 1700 mg/kg | 8.80 pH | 45.47% | 269.02 mm^2 | 6.12 pH | 4.06 pH | 4.06 pH | 4.28 pH | 4.48 pH | 4.67 pH | 4.89 pH | 5.16 pH | 5.33 pH | Relaxation with histamine 10^-2 g/l, after the administration (H2-receptors; 5 × 10^-3 g/l, N° 5): 3; Relaxation with histamine 10^-2 g/l, Δ (H2-receptors; 5 × 10^-3 g/l, N° 5): 8.5; inhibition at 5 µg/mL (H2-receptors; rat, read-out: Inhibition percentage (relaxation with histamine 10^-2 g/l)): 73.9%; pH variation from the beginning of the treatment ([4]; 50 min): 5.40 pH; pH variation from the beginning of the treatment ([4]; 55 min): 5.57 pH; pH variation from the beginning of the treatment ([4]; 60 min): 5.69 pH |
